The assay concerns the target T1, fMet-Leu-Phe receptor (Homo sapiens, UniProt P21462).
T1 sequence (P21462 whole entry): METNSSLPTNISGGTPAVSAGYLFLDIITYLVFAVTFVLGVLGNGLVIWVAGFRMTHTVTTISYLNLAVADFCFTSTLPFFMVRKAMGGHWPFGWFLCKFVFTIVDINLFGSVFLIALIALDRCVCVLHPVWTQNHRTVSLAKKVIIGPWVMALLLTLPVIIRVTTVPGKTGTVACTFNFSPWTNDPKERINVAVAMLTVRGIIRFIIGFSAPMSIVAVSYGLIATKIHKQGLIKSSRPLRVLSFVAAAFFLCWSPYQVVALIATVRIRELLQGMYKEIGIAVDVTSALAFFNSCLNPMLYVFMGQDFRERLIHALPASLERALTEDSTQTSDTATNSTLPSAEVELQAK
Put plainly: FPR1 fluorescent ligand binding inhibitors, dose response, cell-based, flow cytometry, Ki from IC50 (AID 724).

The structures appear in SMILES notation.

Broadly, the IC50 is the concentration that gives 50% inhibition. Read a low IC50 as greater potency. Compound `CC(=O)C1C(=O)C(=O)N(CCc2c(C)[nH]c3ccccc23)C1c1cccc(F)c1` (stereo not given) came in with a half-inhibitory concentration (IC50) of 17.2 µM. In turn, `COc1ccc(C2C(C(=O)c3cccs3)C(=O)C(=O)N2CCCn2ccnc2)cc1` (stereo not given) [1-(3-imidazol-1-ylpropyl)-2-(4-methoxyphenyl)-4-oxidanyl-3-thiophen-2-ylcarbonyl-2H-pyrrol-5-one] gave an IC50 of 7.1 µM. `COc1ccc(C2C(C(=O)c3cccs3)C(=O)C(=O)N2CCN2CCOCC2)c(OC)c1` (stereo not given) [2-(2,4-dimethoxyphenyl)-1-(2-morpholin-4-ylethyl)-4-oxidanyl-3-thiophen-2-ylcarbonyl-2H-pyrrol-5-one] returned a 50% inhibitory concentration (IC50) of 4.4 µM.

`O=C1C(=O)N(CCc2ccccc2)C(c2ccc(Cl)cc2)C1C(=O)c1cccs1` (stereo not given) [2-(4-chlorophenyl)-4-hydroxy-1-(2-phenylethyl)-3-(thiophene-2-carbonyl)-2H-pyrrol-5-one] showed an IC50 of 10.6 µM. The compound `COc1ccc(C2C(C(=O)c3ccco3)C(=O)C(=O)N2CCN2CCOCC2)c(OC)c1` (stereo not given) [5-(2,4-dimethoxyphenyl)-4-(furan-2-carbonyl)-3-hydroxy-1-(2-morpholinoethyl)-1H-pyrrol-2(5H)-one] showed an IC50 of 9.8 µM. On to `COc1ccc(OC)c(C2C(C(=O)c3ccccc3)C(=O)C(=O)N2c2ccc(C)c(Cl)c2)c1` (stereo not given) [(4E)-1-(3-chloranyl-4-methyl-phenyl)-5-(2,5-dimethoxyphenyl)-4-[oxidanyl(phenyl)methylidene]pyrrolidine-2,3-dione], for which the IC50 turned out to be 25.7 µM. Under `COc1ccc(C2C(C(=O)c3ccccc3)C(=O)C(=O)N2c2cccc(Cl)c2)c(OC)c1` (stereo not given) [(4E)-1-(3-chlorophenyl)-5-(2,4-dimethoxyphenyl)-4-[hydroxy(phenyl)methylene]pyrrolidine-2,3-quinone] stands 47.5 µM. Consider `COCCCN1C(=O)C(=O)C(C(=O)c2ccccc2)C1c1ccc(C(C)C)cc1` (stereo not given) [(4E)-1-(3-methoxypropyl)-4-[oxidanyl(phenyl)methylidene]-5-(4-propan-2-ylphenyl)pyrrolidine-2,3-dione], for which the IC50 is 31.1 µM.

In turn, `CC(C)c1ccc(C2C(C(=O)c3ccccc3)C(=O)C(=O)N2Cc2cccnc2)cc1` (stereo not given) [(4E)-4-[hydroxy(phenyl)methylene]-5-p-cumenyl-1-(3-pyridylmethyl)pyrrolidine-2,3-quinone] had an IC50 of 50.7 µM. Regarding `COc1ccc(C2C(C(=O)c3ccccc3)C(=O)C(=O)N2CCCn2ccnc2)c(OC)c1` (stereo not given) [(4E)-5-(2,4-dimethoxyphenyl)-1-(3-imidazol-1-ylpropyl)-4-[oxidanyl(phenyl)methylidene]pyrrolidine-2,3-dione], the IC50 amounted to 5.2 µM. The compound `COc1ccc(C2C(C(=O)c3ccc(C)cc3)C(=O)C(=O)N2Cc2cccnc2)c(OC)c1` (stereo not given) [(4E)-5-(2,4-dimethoxyphenyl)-4-[(4-methylphenyl)-oxidanyl-methylidene]-1-(pyridin-3-ylmethyl)pyrrolidine-2,3-dione] showed a concentration for half-maximal inhibition (IC50) of 59.7 µM. `COCCN1C(=O)C(=O)C(C(=O)c2ccccc2)C1c1cc(OC)ccc1OC` (stereo not given) [(4E)-5-(2,5-dimethoxyphenyl)-1-(2-methoxyethyl)-4-[oxidanyl(phenyl)methylidene]pyrrolidine-2,3-dione] displayed an IC50 of 2.8 µM. Consider `COc1ccc(OC)c(C2C(C(=O)c3ccccc3)C(=O)C(=O)N2c2cccnc2)c1` (stereo not given) [(4E)-5-(2,5-dimethoxyphenyl)-4-[hydroxy(phenyl)methylene]-1-(3-pyridyl)pyrrolidine-2,3-quinone], for which the concentration for half-maximal inhibition (IC50) came to 9.2 µM. As for `COCCCN1C(=O)C(=O)C(C(=O)c2ccccc2)C1c1ccc(O)c(OC)c1` (stereo not given) [(4E)-5-(3-methoxy-4-oxidanyl-phenyl)-1-(3-methoxypropyl)-4-[oxidanyl(phenyl)methylidene]pyrrolidine-2,3-dione], the concentration for half-maximal inhibition (IC50) was determined as 50.5 µM. For `CCCCCCN1C(=O)C(=O)C(C(=O)c2ccccc2)C1c1ccc(O)c(OC)c1` (stereo not given) [(4Z)-1-hexyl-5-(3-methoxy-4-oxidanyl-phenyl)-4-[oxidanyl(phenyl)methylidene]pyrrolidine-2,3-dione], the IC50 stood at 7.2 µM.

The values above are taken from BindingDB's records for doi:10.7270/Q2TB1590 (Nmmlsc, 2007).
